Measurements taken from ChEMBL document CHEMBL5584321, “Chemoenzymatic Synthesis of DNP-Functionalized FGFR1-Binding Peptides as Novel Peptidomimetic Immunotherapeutics for Treating Lung Cancer” (J Med Chem, 2024).
Activity calls are given as the source filed them. No cut-off for these calls is given here. Where a SMILES comes first, the peptide text is derived from it. The star is where a group is joined. X1 = O=[N+]([O-])c1ccc(OCCOCCOCCOCCOCCOCCN*)c([N+](=O)[O-])c1

How the values were obtained:
[1] = Renal toxicity in BALB/c mouse xenografted with human NCI-H1581 cells assessed as change in creatinine level at 20 mg/kg,SC administrated once daily for 12 days; assay type: organism-based; conditions: in vivo, 288 h, time 12 day
L6 [2] = assay: Binding affinity to human full-length wild type FGFR1c stably expressed in rat L6 cells assessed as fluorescence intensity at 10 uM by antibody recruiting based flow cytometry; assay type: cell-based
[3] = Toxicity in BALB/c mouse xenografted with human NCI-H1581 cells assessed as inflammation in kidney at 20 mg/kg,SC administrated once daily for 12 days by hematoxylin and eosin staining based analysis; assay type: organism-based; conditions: in vivo, 288 h, time 12 day
[4] = Toxicity in BALB/c mouse xenografted with human NCI-H1581 cells assessed as inflammation in heart at 20 mg/kg,SC administrated once daily for 12 days by hematoxylin and eosin staining based analysis; assay type: organism-based; conditions: in vivo, 288 h, time 12 day
L6 [5] = assay: Binding affinity to FGFR1c in rat L6 cells assessed as increase in green fluorescence signal incubated for 1 hr by Alexa-488 staining based confocal fluorescence microscopic analysis; assay type: cell-based
[6] = Hepatotoxicity in BALB/c mouse xenografted with human NCI-H1581 cells assessed as change in AST level at 20 mg/kg,SC administrated once daily for 12 days; assay type: toxicity, organism-based; conditions: in vivo, 288 h, time 12 day
L6 [7] = assay: Induction of cell lysis in rat L6 cells at 1 uM incubated for 1 hr by complement dependent cytotoxicity based CCK-8 assay relative to control; assay type: functional
NCI-H1581 [8] = assay: Binding affinity to FGFR1c in human NCI-H1581 cells assessed as increase in fluorescence signal by antibody recruiting based flow cytometry; assay type: cell-based
NCI-H1581 [9] = assay: Binding affinity to FGFR1c in human NCI-H1581 cells assessed as fold change in fluorescence intensity at 10 uM by antibody recruiting based flow cytometry relative to Pep1; assay type: cell-based
[10] = Toxicity in BALB/c mouse xenografted with human NCI-H1581 cells assessed as change in liver weight at 20 mg/kg,SC administrated once daily for 12 days; assay type: organism-based; conditions: in vivo, 288 h, time 12 day
[11] = Toxicity in BALB/c mouse xenografted with human NCI-H1581 cells assessed as change in body weight at 20 mg/kg,SC administrated once daily for 12 days; assay type: organism-based; conditions: in vivo, 288 h, time 12 day
L6 [12] = assay: Induction of cell lysis in rat L6 cells stably expressing human full-length FGFR1c at 1 uM incubated for 1 hr by complement dependent cytotoxicity based CCK-8 assay relative to control; assay type: functional
NCI-H1581 [13] = assay: Binding affinity to FGFR1c in human NCI-H1581 cells assessed as fluorescence intensity at 10 uM by antibody recruiting based flow cytometry; assay type: cell-based
L6 [14] = assay: Induction of apoptosis in FGF2-induced rat L6 cells stably expressing human full-length FGFR1c assessed as downregulation of BCL-2 expression at 50 uM incubated for 24 hrs by Western blotting analysis; assay type: functional, cell-based
NCI-H1581 [15] = assay: Antitumor activity against human NCI-H1581 cells xenografted BALB/c mouse model assessed as inhibition of tumor growth at 20 mg/kg,SC administrated once daily for 12 days relative to control; assay type: functional; conditions: NCI-H1581, 288 h, time 12 day
[16] = Tmax in immunized Sprague-Dawley rat at 1.5 mg/kg,SC administration measured upto 24 hrs by fluorescence based microplate reader assay; assay type: ADME, organism-based; conditions: in vivo
L6 [17] = assay: Induction of apoptosis in FGF2-induced rat L6 cells stably expressing human full-length FGFR1c assessed as upregulation of cleaved PARP expression at 50 uM incubated for 24 hrs by Western blotting analysis; assay type: functional, cell-based
L6 [18] = assay: Binding affinity to human full-length wild type FGFR1c stably expressed in rat L6 cells assessed as increase in green fluorescence signal incubated for 1 hr by Alexa-488 staining based confocal fluorescence microscopic analysis; assay type: cell-based
L6 [19] = assay: Binding affinity to human full-length wild type FGFR1c stably expressed in rat L6 cells assessed as fold change in fluorescence intensity at 10 uM by antibody recruiting based flow cytometry relative to Pep1; assay type: cell-based
[20] = Toxicity in BALB/c mouse xenografted with human NCI-H1581 cells assessed as inflammation in liver at 20 mg/kg,SC administrated once daily for 12 days by hematoxylin and eosin staining based analysis; assay type: organism-based; conditions: in vivo, 288 h, time 12 day
[21] = Toxicity in BALB/c mouse xenografted with human NCI-H1581 cells assessed as inflammation in lung at 20 mg/kg,SC administrated once daily for 12 days by hematoxylin and eosin staining based analysis; assay type: organism-based; conditions: in vivo, 288 h, time 12 day
NCI-H1581 [22] = assay: Antitumor activity against human NCI-H1581 cells xenografted BALB/c mouse model assessed as induction of apoptosis by measuring increase in TUNEL positive cells at 20 mg/kg,SC administrated once daily for 12 days; assay type: functional, organism-based; conditions: time 12.0 day
NCI-H1581 [23] = assay: Binding affinity to FGFR1c in human NCI-H1581 cells assessed as increase in green fluorescence signal incubated for 1 hr by Alexa-488 staining based confocal fluorescence microscopic analysis; assay type: cell-based
[24] = AUC in immunized Sprague-Dawley rat at 1.5 mg/kg,SC administration measured upto 24 hrs by fluorescence based microplate reader assay; assay type: ADME, organism-based; conditions: in vivo
[25] = Toxicity in BALB/c mouse xenografted with human NCI-H1581 cells assessed as change in spleen weight at 20 mg/kg,SC administrated once daily for 12 days; assay type: organism-based; conditions: in vivo, 288 h, time 12 day
NCI-H1581 [26] = assay: Antitumor activity against human NCI-H1581 cells xenografted BALB/c mouse model assessed as inhibition of tumor proliferation by measuring decrease in Ki67 positive cells at 20 mg/kg,SC administrated once daily for 12 days; assay type: functional, organism-based; conditions: time 12.0 day
[27] = Toxicity in BALB/c mouse xenografted with human NCI-H1581 cells assessed as change in lung weight at 20 mg/kg,SC administrated once daily for 12 days; assay type: organism-based; conditions: in vivo, 288 h, time 12 day
[28] = Hepatotoxicity in BALB/c mouse xenografted with human NCI-H1581 cells assessed as change in ALT level at 20 mg/kg,SC administrated once daily for 12 days; assay type: toxicity, organism-based; conditions: in vivo, 288 h, time 12 day
L6 [29] = assay: Antiproliferative activity against FGF2-induced rat L6 cells stably expressing human full-length FGFR1c assessed as inhibition of cell growth at 100 uM incubated for 36 hrs by CCK-8 assay relative to control; assay type: functional
[30] = Toxicity in BALB/c mouse xenografted with human NCI-H1581 cells assessed as change in heart weight at 20 mg/kg,SC administrated once daily for 12 days; assay type: organism-based; conditions: in vivo, 288 h, time 12 day
[31] = Toxicity in BALB/c mouse xenografted with human NCI-H1581 cells assessed as cell necrosis in heart at 20 mg/kg,SC administrated once daily for 12 days by hematoxylin and eosin staining based analysis; assay type: organism-based; conditions: in vivo, 288 h, time 12 day
[32] = Toxicity in BALB/c mouse xenografted with human NCI-H1581 cells assessed as change in kidney weight at 20 mg/kg,SC administrated once daily for 12 days; assay type: organism-based; conditions: in vivo, 288 h, time 12 day
[33] = Toxicity in BALB/c mouse xenografted with human NCI-H1581 cells assessed as inflammation in spleen at 20 mg/kg,SC administrated once daily for 12 days by hematoxylin and eosin staining based analysis; assay type: organism-based; conditions: in vivo, 288 h, time 12 day
L6 [34] = assay: Antiproliferative activity against FGF2-induced rat L6 cells stably expressing human full-length FGFR1c assessed as inhibition of cell growth incubated for 36 hrs by CCK-8 assay; assay type: functional, cell-based
[35] = Renal toxicity in BALB/c mouse xenografted with human NCI-H1581 cells assessed as change in urea level at 20 mg/kg,SC administrated once daily for 12 days; assay type: organism-based; conditions: in vivo, 288 h, time 12 day
[36] = Binding affinity to CM5 sensor chip immobilized human full-length wild type FGFR1c assessed as dissociation constant by SPR analysis

Structure (SMILES): CC(C)C[C@H](NC(=O)[C@H](C)NC(=O)[C@@H](NC(=O)[C@H](Cc1ccc(O)cc1)NC(=O)[C@H](Cc1c[nH]c2ccccc12)NC(=O)[C@H](CO)NC(=O)[C@H](CO)NC(=O)[C@H](Cc1ccc(O)cc1)NC(=O)[C@H](CCCCN)NC(=O)[C@H](CCCNC(=N)N)NC(=O)[C@H](CO)NC(=O)[C@H](CCCNC(=N)N)NC(=O)[C@@H](N)Cc1ccc(O)cc1)C(C)C)C(=O)N[C@@H](CCCCN)C(=O)N[C@@H](CCCNC(=N)N)C(=O)N[C@@H](CC(C)C)C(=O)N1CCC[C@H]1C(=O)N[C@@H](CCC(=O)O)C(=O)N[C@H](C(=O)NCC(=O)NCC(=O)NCC(=O)NCCOCCOCCOCCOCCOCCOc1ccc([N+](=O)[O-])cc1[N+](=O)[O-])[C@@H](C)O (H-YRSRKYSSWYVALKRLPETGGG-X1)
- Activity [1]: Non-Toxic
- Flu intensity (L6 [2]): 1.8 10^4No_unit
- Activity [3]: Non-Toxic
- Activity [4]: Non-Toxic
- Activity (L6 [5]): inactive
- Activity [6]: Non-Toxic
- Activity (L6 [7]): inactive
- Activity (NCI-H1581 [8]): Dose-Dependent Effect
- fold change (FC) (NCI-H1581 [9]): 36
- Activity [10]: Non-Toxic
- Activity [11]: Non-Toxic
- Activity (L6 [12]): 45.8%
- Flu intensity (NCI-H1581 [13]): 5.7 10^3No_unit
- Activity (L6 [14]): Active
- inhibition in vivo at 20 mg/kg (NCI-H1581 [15]): 72.7%
- Tmax [16]: 1.67 h
- Activity (L6 [17]): Active
- Activity (L6 [18]): Active
- fold change (FC) (L6 [19]): 200
- Activity [20]: Non-Toxic
- Activity [21]: Non-Toxic
- Activity (NCI-H1581 [22]): Active
- Activity (NCI-H1581 [23]): Active
- AUC at 24 h [24]: 2600 ng·h/mL
- Activity [25]: Non-Toxic
- Activity (NCI-H1581 [26]): Active
- Activity [27]: Non-Toxic
- Activity [28]: Non-Toxic
- inhibition at 100 µM (L6 [29]): 100%
- Activity [30]: Non-Toxic
- Activity [31]: Non-Toxic
- Activity [32]: Non-Toxic
- Activity [33]: Non-Toxic
- Activity (L6 [34]): Dose-Dependent Effect
- Activity [35]: Non-Toxic
- Kd [36]: 5.01 µM
